26 molecules from patent US12534457B2, “Heteroaryl derivative compounds, and uses thereof” (Voronoi Inc., priority 2021, dated 2026) can be followed below.

A word on the GI50: it is the concentration at which growth is held to half of that of the control.

This test relates to Ba/F3 cells expressing EGFR Del19/C797S (EGFR DC). Description: Proliferation inhibitory activity, Ba/F3 cells expressing EGFR Del19/C797S (CellTiter-Glo). The test is classed as cell-based. Particulars: Mus musculus, BaF3, 72 hours of compound treatment. How it is done: The following experiments were performed to evaluate the inhibitory activity of the compounds according to the present disclosure on Ba/F3 proliferation expressing EGFR C797S, L861Q, G719A, S768I, L718Q, and/or G724S mutations.
For Ba/F3 cells, RPMI-1640 containing 10% FBS and 5 ng/ml IL-3 (R&D Systems) was used. Transduced Ba/F3 cells were cultured after adding 1 μg/ml puromycin (Invitrogen) to the same medium.
At 24 hours before treatment with the compounds, 3000 to 5000 cells were aliquoted into each well of a white clear bottom 96 well plate (Corning). The compounds were diluted in dimethyl sulfoxide (3 times dilution, 12 concentrations in total), and injected in an amount of 1 μl so that the final concentration was 0.2 nM to 5 uM. For measurement of living cells, after 72 hours of compound treatment, the cells were stored at room temperature for 10 min using CellTiter-Glo luminescentcell-viability reagent (Promega), and then luminescence intensity was measured using a reader (SynergyNeo, Biotek). Each test was repeated three times. Result values were calculated as the cell growth rate (%) compared to the control. The graphs were created using GraphPad Prism version 8.3.0 program and the GI50 values were calculated.
Take `c1ccc([C@H]2CCON2c2cc(Nc3ccc(N4CCNCC4)cc3)ncn2)cc1` [Example 77, (R)-6-(3-phenylisoxazolidin-2-yl)-N-(4-(piperazin-1-yl)phenyl)pyrimidin-4-amine]: the GI50 was less than 50 nM.
To `COc1cc(N2CCSCC2)ccc1Nc1cc(N2OCC[C@@H]2c2ccccc2)ncn1` [Example 66, (R)—N-(2-methoxy-4-thiomorpholinophenyl)-6-(3-phenylisoxazolidin-2-yl)pyrimidin-4-amine] belongs less than 50 nM; to `COc1cc(N2CCC(N3CCN(C4CC4)C(C)(C)C3)CC2)ccc1Nc1cc(N2OCC[C@@H]2c2ccccc2)ncn1` [Example 61, (R)—N-(4-(4-(4-cyclopropyl-3,3-dimethylpiperazin-1-yl)piperidin-1-yl)-2-methoxyphenyl)-6-(3-phenylisoxazolidin-2-yl)pyrimidin-4-amine], less than 50 nM.
To `Fc1cc(F)cc([C@H]2CCON2c2cc(Nc3ccc(C4CCNCC4)c4c3OCC4)ncn2)c1` [Example 157, (R)-6-(3-(3,5-difluorophenyl)isoxazolidin-2-yl)-N-(4-(piperidin-4-yl)-2,3-dihydrobenzofuran-7-yl)pyrimidin-4-amine] belongs less than 50 nM.
`COc1nc(N2CCC(N3CCN(C)CC3)CC2)c(-c2cnn(C)c2)cc1Nc1cc(N2OCC[C@@H]2c2ccccc2)ncn1` [Example 147, (R)—N-(2-methoxy-5-(1-methyl-1H-pyrazol-4-yl)-6-(4-(4-methylpiperazin-1-yl)piperidin-1-yl)pyridin-3-yl)-6-(3-phenylisoxazolidin-2-yl)pyrimidin-4-amine]: the GI50 is less than 50 nM.
To `Cc1cc(Nc2cc(N3OCC[C@@H]3c3cc(F)ccc3F)ncn2)ccc1N1CCC(N2CCN(C)CC2)CC1` [Example 103, (R)-6-(3-(2,5-difluorophenyl)isoxazolidin-2-yl)-N-(3-methyl-4-(4-(4-methylpiperazin-1-yl)piperidin-1-yl)phenyl)pyrimidin-4-amine] belongs less than 50 nM; to `COc1cc(N2CCC(N3CCN(C)CC3)CC2)ccc1Nc1cc(N2OCC[C@@H]2c2ccc(C)nc2)ncn1` [Example 38, (R)—N-(2-methoxy-4-(4-(4-methylpiperazin-1-yl)piperidin-1-yl)phenyl)-6-(3-(6-methylpyridin-3-yl)isoxazolidin-2-yl)pyrimidin-4-amine], 50 to 500 nM; to `COc1cc2c(cc1Nc1cc(N3OCC[C@@H]3c3cc(F)cc(F)c3)ncn1)NCC21CCN(C)CC1` [Example 154, (R)—N-(6-(3-(3,5-difluorophenyl)isoxazolidin-2-yl)pyrimidin-4-yl)-5-methoxy-1′-methylspiro[indolin-3,4′-piperidin]-6-amine], less than 50 nM.
The value for `COc1cc(N2CCC(N3CC[C@@H](N(C)C)C3)CC2)ccc1Nc1cc(N2OCC[C@@H]2c2cccc(F)c2F)ncn1` [Example 212, 6-((R)-3-(2,3-difluorophenyl)isoxazolidin-2-yl)-N-(4-(4-((R)-3-(dimethylamino)pyrrolidin-1-yl)piperidin-1-yl)-2-methoxyphenyl)pyrimidin-4-amine] was less than 50 nM; that for `C[C@@H]1[C@@H](CS(C)(=O)=O)CN1c1cc(Nc2cc(N3OCC[C@@H]3c3cccc(F)c3F)ncn2)cc(-c2cnn(C)c2)c1N1CCOCC1` [Example 203, 6-((R)-3-(2,3-difluorophenyl)isoxazolidin-2-yl)-N-(3-(1-methyl-1H-pyrazol-4-yl)-5-((2R,3S)-2-methyl-3-((methylsulfonyl)methyl)azetidin-1-yl)-4-morpholinophenyl)pyrimidin-4-amine] was less than 50 nM.
To `CN1CCN(Cc2cc(Nc3cc(N4OCC[C@@H]4c4cc(F)cc(F)c4)ncn3)cc(C(C)(C)C#N)c2)CC1` [Example 14, (R)-2-(3-((6-(3-(3,5-difluorophenyl)isoxazolidin-2-yl)pyrimidin-4-yl)amino)-5-((4-methylpiperazin-1-yl)methyl)phenyl)-2-methylpropanenitrile] belongs 50 to 500 nM; to `COc1cc(N2CCC(N3CCN(C)CC3)CC2)ccc1Nc1cc(N2OCC[C@@H]2c2ccc3ccccc3c2)ncn1` [Example 89, (R)—N-(2-methoxy-4-(4-(4-methylpiperazin-1-yl)piperidin-1-yl)phenyl)-6-(3-(naphthalen-2-yl)isoxazolidin-2-yl)pyrimidin-4-amine], 50 to 500 nM.
Turning to `CN1CCC(N2CCN3c4ccc(Nc5cc(N6OCC[C@@H]6c6ccccc6)ncn5)cc4OC[C@H]3C2)CC1` [Example 48, (R)-3-(1-methylpiperidin-4-yl)-N-(6-((R)-3-phenylisoxazolidin-2-yl)pyrimidin-4-yl)-1,2,3,4,4a,5-hexahydrobenzo[b]pyrazino[1,2-d][1,4]oxazin-8-amine], the GI50 is less than 50 nM.
Turning to `COc1cc(N2CCC(N3CCN(C4CCC4)CC3)CC2)ccc1Nc1cc(N2OCC[C@@H]2c2cccc(F)c2F)ncn1` [Example 208, (R)—N-(4-(4-(4-cyclobutylpiperazin-1-yl)piperidin-1-yl)-2-methoxyphenyl)-6-(3-(2,3-difluorophenyl)isoxazolidin-2-yl)pyrimidin-4-amine], the GI50 was less than 50 nM.
To `COc1cc(N2CCC(N3CCN(C)CC3)CC2)ccc1Nc1cc(N2OCC[C@@H]2c2cccc(C(=O)OC(C)C)c2)ncn1` [Example 100, isopropyl (R)-3-(2-(6-((2-methoxy-4-(4-(4-methylpiperazin-1-yl)piperidin-1-yl)phenyl)amino)pyrimidin-4-yl)isoxazolidin-3-yl)benzoate] belongs 50 to 500 nM; to `COc1cc(N2CCC3(CC2)CC(N(C)C)C3)c(C)cc1Nc1cc(N2OCC[C@@H]2c2ccccc2)ncn1` [Example 88, (R)-7-(5-methoxy-2-methyl-4-((6-(3-phenylisoxazolidin-2-yl)pyrimidin-4-yl)amino)phenyl)-N,N-dimethyl-7-azaspiro[3.5]nonan-2-amine], less than 50 nM; to `COc1cc2c(cc1Nc1cc(N3OCC[C@@H]3c3cc(F)cc(F)c3)ncn1)N(C(=O)C(F)(F)F)CC21CCN(C)CC1` [Example 152, (R)-1-(6-((6-(3-(3,5-difluorophenyl)isoxazolidin-2-yl)pyrimidin-4-yl)amino)-5-methoxy-1′-methylspiro[indolin-3,4′-piperidin]-1-yl)-2,2,2-trifluoroethan-1-one], less than 50 nM.
Regarding `COc1cc(P2(=O)CCN(C3CC3)CC2)ccc1Nc1cc(N2OCC[C@@H]2c2ccccc2)ncn1` [Example 81, (R)-1-cyclopropyl-4-(3-methoxy-4-((6-(3-phenylisoxazolidin-2-yl)pyrimidin-4-yl)amino)phenyl)-1,4-azaphosphinane 4-oxide], the GI50 was 50 to 500 nM.
The value for `COc1cc(N2CCC(N3CCN(C)CC3)CC2)c(C(C)=O)cc1Nc1cc(N2OCC[C@@H]2c2cccc(F)c2F)ncn1` [Example 145, (R)-1-(5-((6-(3-(2,3-difluorophenyl)isoxazolidin-2-yl)pyrimidin-4-yl)amino)-4-methoxy-2-(4-(4-methylpiperazin-1-yl)piperidin-1-yl)phenyl)ethan-1-one] was less than 50 nM.
The value for `Cc1cc(Nc2cc(N3OCC[C@@H]3c3ccccc3)ncn2)ccc1N1CCN(C)CC1` [Example 107, (R)—N-(3-methyl-4-(4-methylpiperazin-1-yl)phenyl)-6-(3-phenylisoxazolidin-2-yl)pyrimidin-4-amine] was less than 50 nM.
The value for `O=C1CCCN1c1ccc(Nc2cc(N3OCC[C@@H]3c3ccccc3)ncn2)cc1` [Example 75, (R)-1-(4-((6-(3-phenylisoxazolidin-2-yl)pyrimidin-4-yl)amino)phenyl)pyrrolidin-2-one] was less than 50 nM; that for `CCc1cc(Nc2cc(N3OCC[C@@H]3c3ccccc3)ncn2)ccc1N1CCC(N2CCN(C)CC2)CC1` [Example 117, (R)—N-(3-ethyl-4-(4-(4-methylpiperazin-1-yl)piperidin-1-yl)phenyl)-6-(3-phenylisoxazolidin-2-yl)pyrimidin-4-amine] was less than 50 nM; that for `COc1cc(NC2CCN(C)CC2)ccc1Nc1cc(N2OCC[C@@H]2c2ccccc2)ncn1` [Example 113, (R)-2-methoxy-N4-(1-methylpiperidin-4-yl)-N1-(6-(3-phenylisoxazolidin-2-yl)pyrimidin-4-yl)benzene-1,4-diamine] was less than 50 nM.
Regarding `CCc1cc(Nc2cc(N3OCC[C@@H]3c3ccc(F)cc3)ncn2)c(OC)cc1N1CCC(N2CCN(C)CC2)CC1` [Example 91, (R)—N-(5-ethyl-2-methoxy-4-(4-(4-methylpiperazin-1-yl)piperidin-1-yl)phenyl)-6-(3-(4-fluorophenyl)isoxazolidin-2-yl)pyrimidin-4-amine], the GI50 is less than 50 nM.
To `COc1cc(N2CCC(N3CCN(C)CC3)CC2)ccc1Nc1cc(N2OCC[C@@H]2c2cc(F)ccc2F)ncn1` [Example 30, (R)-6-(3-(2,5-difluorophenyl)isoxazolidin-2-yl)-N-(2-methoxy-4-(4-(4-methylpiperazin-1-yl)piperidin-1-yl)phenyl)pyrimidin-4-amine] belongs less than 50 nM; to `CN1CCN(C2CCN(c3ccc(Nc4cc(N5OCC[C@@H]5c5cc(F)cc(F)c5)ncn4)cc3)CC2)CC1` [Example 17, (R)-6-(3-(3,5-difluorophenyl)isoxazolidin-2-yl)-N-(4-(4-(4-methylpiperazin-1-yl)piperidin-1-yl)phenyl)pyrimidin-4-amine], 50 to 500 nM.
